Source: publication PMC8597046, “Use of Mixture Dosing and Nonlinear Mixed Effect Modeling of Eight Environmental Contaminants in Rabbits to Improve Extrapolation Value of Toxicokinetic Data” (Environmental Health Perspectives, 2021)

Assays:
in vivo [1] = details: female, rabbit, in vivo, iv; for AUC(0-inf) / Cmax / MRT / clearance / half-life / Vd: New Zealand white (INRA 1777 line); for Serum concentration / concentration at 0.6 h / concentration at 0.67 h / concentration at 0.77 h / concentration at 24 h / concentration at 24.03 h / concentration at 71.97 h / concentration at 72 h / concentration at 72.03 h / concentration at 167.92 h / concentration at 168 h / concentration at 671.83 h / concentration at 671.96 h / concentration at 672 h: New Zealand white; for concentration at 0.6 h / concentration at 0.67 h / concentration at 0.77 h / concentration at 24 h / concentration at 24.03 h / concentration at 71.97 h / concentration at 72 h / concentration at 72.03 h / concentration at 167.92 h / concentration at 168 h / concentration at 671.83 h / concentration at 671.96 h / concentration at 672 h: Serum concentration
Outline: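 Female New Zealand white rabbits received a compound mixture IV via ear-vein catheter; serum sampled sparsely (3 rabbits/time point) from 15 min to 28 d. Noncompartmental sparse-data analysis on mean profiles: linear-trapezoidal AUC, CL as dose/AUC0−inf, half-life from λZ, MRT and VSS.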

[2] = Estimation of loading and daily maintenance doses and NLME model simulations; parameters: species or system female rabbits; details: oral; for Computed maintenance dose: daily; for Computed maintenance dose / Computed loading dose: scaled to the targeted CSS of Table 6; for Daily maintenance dose: to maintain serum concentration of 1 ng/mL, daily CL×Css/F; for Daily maintenance dose / Loading dose: DEHP dose for MEHP in serum; for Loading dose: to rapidly attain serum concentration of 1 ng/mL, Vss×Css/F
Outline: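 Loading and daily maintenance doses computed from TK equations for a nominal CSS of 1 ng/mL, then scaled to oral doses for female rabbits. NLME model simulated central and peripheral compartment amounts over repeated daily maintenance dosing.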

in vivo [3] = details: female, New Zealand white (INRA 1777 line), rabbit, in vivo, po
Outline: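 Female New Zealand white rabbits (INRA 1777 line, 2 wk old, n=16 treated, 16 vehicle controls) received an oral eight-compound mixture: loading plus maintenance dose, then daily maintenance dose for 17 wk. Dosing volume 1mL/kg adjusted weekly to predicted BW; serum obtained after clotting and centrifugation, stored at −20°C.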

Compound: ClC(Cl)=C(c1ccc(Cl)cc1)c1ccc(Cl)cc1 [pp′DDE, 1,1-Dichloro-2,2-bis(p-chlorophenyl)ethylene]
- AUC(0-inf) (in vivo [1]): 19.8 µM·h
- Cmax (in vivo [1]): 900 nM
- MRT (in vivo [1]): 8.46 days
- clearance (in vivo [1]): 1.83 mL/min/kg
- half-life (in vivo [1]): 9.92 days
- Vd (in vivo [1]; VSS): 23.2 L/kg
- Vd (in vivo [1]; VZ): 39.2 L/kg
- Serum concentration (in vivo [1]; 24 h): 60 nM
- Serum concentration (in vivo [1]; 168 h): 15 nM
- concentration at 0.6 h (in vivo [1]): 600 nM
- concentration at 0.67 h (in vivo [1]): 900 nM
- concentration at 0.77 h (in vivo [1]): 640 nM
- concentration at 24 h (in vivo [1]): 65 nM
- concentration at 24.03 h (in vivo [1]): 47 nM
- concentration at 71.97 h (in vivo [1]): 27 nM
- concentration at 72 h (in vivo [1]): 26 nM
- concentration at 72.03 h (in vivo [1]): 27 nM
- concentration at 167.92 h (in vivo [1]): 11 nM
- concentration at 168 h (in vivo [1]): 19 nM
- concentration at 671.83 h (in vivo [1]): 3.7 nM
- concentration at 671.96 h (in vivo [1]): 2.8 nM
- concentration at 672 h (in vivo [1]): 6.8 nM
- Computed maintenance dose [2]: 0.095 mg/kg
- Computed loading dose [2]: 1,039 μg/kg
- Daily maintenance dose [2]: 0.0045 mg/kg
- Loading dose [2]: 0.049 mg/kg
- concentration at 17 wk (in vivo [3]): 25 ± 12 ng/mL

Compound: Cl[C@H]1[C@H](Cl)[C@@H](Cl)[C@H](Cl)[C@@H](Cl)[C@@H]1Cl [β-HCH, β-hexachlorocyclohexane]
- AUC(0-inf) (in vivo [1]): 26.7 µM·h
- Cmax (in vivo [1]): 320 nM
- MRT (in vivo [1]): 22.6 days
- clearance (in vivo [1]): 0.95 mL/min/kg
- half-life (in vivo [1]): 13.8 days
- Vd (in vivo [1]; VSS, IV mixture dosing, NCA, n=12): 30.9 L/kg
- Vd (in vivo [1]; VZ, IV mixture dosing, NCA, n=12): 27.1 L/kg
- concentration at 24.03 h (in vivo [1]; rabbit 1, 24.03 h): 62 nM
- concentration at 24 h (in vivo [1]; rabbit 2, […]): 50 nM
- concentration at 24 h (in vivo [1]; rabbit 3, […]): 76 nM
- concentration at 72 h (in vivo [1]; rabbit 4, 72.00 h): 36 nM
- concentration at 72.03 h (in vivo [1]; rabbit 5, 72.03 h): 34 nM
- concentration at 71.97 h (in vivo [1]; rabbit 6, 71.97 h): 29 nM
- concentration at 168 h (in vivo [1]; rabbit 7, 168.00 h): 20 nM
- concentration at 167.92 h (in vivo [1]; rabbit 8, 167.92 h): 18 nM
- concentration at 168 h (in vivo [1]; rabbit 9, 168.00 h): 25 nM
- concentration at 0.67 h (in vivo [1]; rabbit 10, 0.67 h): 320 nM
- concentration at 671.96 h (in vivo [1]; rabbit 10, 671.96 h): 6.5 nM
- concentration at 0.77 h (in vivo [1]; rabbit 11, 0.77 h): 250 nM
- concentration at 672 h (in vivo [1]; rabbit 11, 672.00 h): 21 nM
- concentration at 0.6 h (in vivo [1]; rabbit 12, 0.60 h): 270 nM
- concentration at 671.83 h (in vivo [1]; rabbit 12, 671.83 h): 9.6 nM
- Computed maintenance dose [2]: 0.011 mg/kg
- Computed loading dose [2]: 163 µg/kg
- Daily maintenance dose [2]: 0.0024 mg/kg
- Loading dose [2]: 0.037 mg/kg
- concentration at 17 wk (in vivo [3]): 4.3 ± 1.6 ng/mL
